Like-named read-outs stand apart in the source and are kept apart here.
How the values were obtained:
Format in all cases: in vivo
[1] = tested on: Matricaria inodora (MATIN); assay: Post-emergence herbicidal action against MATIN
Method: (§1) Seeds of monocotyledonous and dicotyledonous weeds and crop plants are placed in sandy loam in plastic or organic planting pots, covered with soil and cultivated in a greenhouse under controlled growth conditions. 2 to 3 weeks after sowing, the test plants are treated at the one-leaf stage. The compounds of the invention, formulated in the form of wettable powders (WP) or as emulsion concentrates (EC), are then sprayed onto the green parts of the plants as aqueous suspension or emulsion with addition of 0.5% additive at a water application rate of 600 l/ha (converted). After the test plants have been kept in the greenhouse under optimum growth conditions for about 3 weeks, the activity of the preparations is rated visually in comparison to untreated controls. For example, 100% activity=the plants have died, 0% activity=like control plants.
(§2) Tables B1 to B13 below show the effects of selected compounds of the general formula (I) according to Table 1 on various harmful plants and at an application rate corresponding to 320 g/ha or lower, which were obtained by the experimental procedure mentioned above. The appendices “a”, “b” and “c” give differentiation by dosage used with otherwise the same harmful plants tested.

[2] = tested on: Pharbitis purpurea (PHBPU); assay: Pre-emergence herbicidal action against PHBPU
Text: (§3) Seeds of monocotyledonous and dicotyledonous weed plants and crop plants are placed in plastic or organic planting pots and covered with soil. The compounds of the invention, formulated in the form of wettable powders (WP) or as emulsion concentrates (EC), are then applied to the surface of the covering soil as aqueous suspension or emulsion with addition of 0.5% additive at a water application rate equivalent to 600 l/ha. After the treatment, the pots are placed in a greenhouse and kept under good growth conditions for the trial plants. After about 3 weeks, the effect of the preparations is scored visually in comparison with untreated controls as percentages. For example, 100% activity=the plants have died, 0% activity=like control plants.
(§4) Tables A1 to A13 below show the effects of selected compounds of the general formula (I) on various harmful plants and at an application rate corresponding to 320 g/ha or lower, which were obtained by the experimental procedure mentioned above. The appendices “a”, “b” and “c” give differentiation by dosage used with otherwise the same harmful plants tested.

[3] = tested on: Alopecurus myosuroides (ALOMY); assay: Post-emergence herbicidal action against ALOMY; settings: 320 g/ha, visual rating about 3 weeks after treatment vs untreated controls (100% = plants have died, 0% = like control plants)
Method: as §1, §2

[4] = tested on: Amaranthus retroflexus (AMARE); assay: Pre-emergence herbicidal action against AMARE; settings: visual scoring after about 3 weeks vs untreated controls
Text: as §3, §4

[5] = tested on: Setaria viridis (SETVI); assay: Post-emergence herbicidal action against SETVI
Method: as §1, §2

[6] = tested on: Abutilon theophrasti (ABUTH); assay: Post-emergence herbicidal action against ABUTH; settings: 320 g/ha, visual rating about 3 weeks after treatment vs untreated controls (100% = plants have died, 0% = like control plants)
Method: as §1, §2

[7] = tested on: Amaranthus retroflexus (AMARE); assay: Post-emergence herbicidal action against AMARE
Method: as §1, §2

[8] = tested on: Viola tricolor (VIOTR); assay: Pre-emergence herbicidal action against VIOTR
Text: as §3, §4

[9] = tested on: Lolium rigidum (LOLRI); assay: Post-emergence herbicidal action against LOLRI
Method: as §1, §2

[10] = tested on: Oryza sativa (ORYSA); settings: crop plant compatibility, effect in comparison to untreated controls
Method: as §1
The observed effects on selected crop plants are reported here in comparison to the untreated controls (values in %). The appendices “a”, “b” and “c” give differentiation by dosage used with otherwise the same crop plants tested.

[11] = tested on: Verconica persica (VERPE); assay: Post-emergence herbicidal action against VERPE
Method: as §1, §2

[12] = tested on: Pharbitis purpurea (PHBPU); assay: Post-emergence herbicidal action against PHBPU
Method: as §1, §2

[13] = tested on: Polygonum convolvulus (POLCO); assay: Pre-emergence herbicidal action against POLCO
Text: as §3, §4

[14] = tested on: Echinochloa crus-galli (ECHCG); assay: Pre-emergence herbicidal action against ECHCG
Text: as §3, §4

[15] = tested on: Matricaria inodora (MATIN); assay: Pre-emergence herbicidal action against MATIN
Text: as §3, §4

[16] = tested on: Verconica persica (VERPE); assay: Pre-emergence herbicidal action against VERPE
Text: as §3, §4

[17] = tested on: Setaria viridis (SETVI); assay: Pre-emergence herbicidal action against SETVI
Text: as §3, §4

[18] = tested on: Lolium rigidum (LOLRI); assay: Pre-emergence herbicidal action against LOLRI
Text: as §3, §4

[19] = tested on: Echinochloa crus-galli (ECHCG); assay: Post-emergence herbicidal action against ECHCG
Method: as §1, §2

[20] = tested on: Alopecurus myosuroides (ALOMY); assay: Pre-emergence herbicidal action against ALOMY; settings: scored visually after about 3 weeks, 100% = plants have died
Text: as §3, §4

[21] = tested on: Avena fatua (AVEFA); assay: Pre-emergence herbicidal action against AVEFA; settings: 320 g/ha, visual scoring after about 3 weeks vs untreated controls
Text: as §3, §4

[22] = tested on: Avena fatua (AVEFA); assay: Post-emergence herbicidal action against AVEFA; settings: visual rating about 3 weeks after treatment
Method: as §1, §2

[23] = tested on: Polygonum convolvulus (POLCO); assay: Post-emergence herbicidal action against POLCO
Method: as §1, §2

[24] = tested on: Viola tricolor (VIOTR); assay: Post-emergence herbicidal action against VIOTR
Method: as §1, §2

[25] = 320 g/ha, visual rating about 3 weeks after treatment

Structure (SMILES): COC(=O)COc1nn(-c2nc(F)ccc2F)c(-c2cncc(F)c2)c1Br [Example I-210]
- Post-emergence action against MATIN in % ([1]; dosage 80 g/ha): 80%
- Post-emergence action against MATIN in % ([1]; dosage 320 g/ha): 80%
- Pre-emergence action against PHBPU in % ([2]; dosage 80 g/ha): 90%
- Pre-emergence action against PHBPU in % ([2]; dosage 320 g/ha): 90%
- Post-emergence action against ALOMY in % [3]: 90%
- Pre-emergence action against AMARE in % ([4]; 80 g/ha): 80%
- Pre-emergence action against AMARE in % ([4]; 320 g/ha): 100%
- Post-emergence action against SETVI in % ([5]; dosage 80 g/ha): 80%
- Post-emergence action against SETVI in % ([5]; dosage 320 g/ha): 80%
- Post-emergence action against ABUTH in % [6]: 80%
- Post-emergence action against AMARE in % [7, 25]: 80%
- Pre-emergence action against VIOTR in % ([8]; 320 g/ha, Viola tricolor): 100%
- Pre-emergence action against VIOTR in % ([8]; dosage 80 g/ha): 90%
- Post-emergence action against LOLRI in % ([9]; dosage 320 g/ha): 80%
- Post-emergence action against ORYSA in % ([10]; 80 g/ha): 10%
- Post-emergence action against VERPE in % ([11]; 320 g/ha, VERPE): 90%
- Post-emergence action against VERPE in % ([11]; dosage 80 g/ha): 90%
- Post-emergence action against PHBPU in % ([12]; dosage 80 g/ha): 90%
- Post-emergence action against PHBPU in % ([12]; dosage 320 g/ha): 100%
- Pre-emergence action against POLCO in % ([13]; dosage 80 g/ha): 90%
- Pre-emergence action against POLCO in % ([13]; dosage 320 g/ha): 100%
- Pre-emergence action against ECHCG in % ([14]; dosage 80 g/ha): 90%
- Pre-emergence action against ECHCG in % ([14]; dosage 320 g/ha): 100%
- Pre-emergence action against MATIN in % ([15]; dosage 80 g/ha): 90%
- Pre-emergence action against MATIN in % ([15]; dosage 320 g/ha): 90%
- Pre-emergence action against VERPE in % ([16]; dosage 320 g/ha): 100%
- Pre-emergence action against SETVI in % ([17]; dosage 80 g/ha): 90%
- Pre-emergence action against SETVI in % ([17]; dosage 320 g/ha): 100%
- Pre-emergence action against LOLRI in % ([18]; dosage 320 g/ha): 80%
- Post-emergence action against ECHCG in % ([19]; dosage 80 g/ha): 80%
- Post-emergence action against ECHCG in % ([19]; dosage 320 g/ha): 80%
- Pre-emergence action against ALOMY ([20]; 80 g/ha): 80%
- Pre-emergence action against ALOMY ([20]; 320 g/ha): 90%

Structure (SMILES): CC(NC(=O)[C@@H](C)Oc1nn(-c2ccccn2)c(-c2ccc(F)nc2)c1Cl)C(=O)O (some centres unmarked) [Example I-350]
- Pre-emergence action against PHBPU in % ([2]; dosage 320 g/ha): 80%
- Post-emergence action against ALOMY in % [3]: 90%
- Pre-emergence action against AMARE in % ([4]; 80 g/ha): 100%
- Pre-emergence action against AMARE in % ([4]; 320 g/ha): 100%
- Pre-emergence action against AVEFA in % [21]: 100%
- Post-emergence action against SETVI in % ([5]; dosage 80 g/ha): 80%
- Post-emergence action against SETVI in % ([5]; dosage 320 g/ha): 90%
- Post-emergence action against ABUTH in % [6]: 90%
- Post-emergence action against AMARE in % ([7]; 80 g/ha, visual rating about 3 weeks after treatment vs untreated controls (100% = plants have died, 0% = like control plants)): 90%
- Post-emergence action against AMARE in % [7, 25]: 90%
- Pre-emergence action against VIOTR in % ([8]; 320 g/ha, Viola tricolor): 100%
- Pre-emergence action against VIOTR in % ([8]; dosage 80 g/ha): 100%
- Post-emergence action against LOLRI in % ([9]; dosage 80 g/ha): 80%
- Post-emergence action against LOLRI in % ([9]; dosage 320 g/ha): 90%
- Post-emergence action against ORYSA in % ([10]; 80 g/ha): 0%
- Post-emergence action against ORYSA in % ([10]; 320 g/ha): 10%
- Post-emergence action against VERPE in % ([11]; 320 g/ha, VERPE): 90%
- Pre-emergence action against POLCO in % ([13]; dosage 80 g/ha): 90%
- Pre-emergence action against POLCO in % ([13]; dosage 320 g/ha): 90%
- Pre-emergence action against ECHCG in % ([14]; dosage 80 g/ha): 100%
- Pre-emergence action against ECHCG in % ([14]; dosage 320 g/ha): 100%
- Pre-emergence action against MATIN in % ([15]; dosage 320 g/ha): 90%
- Post-emergence action against AVEFA in % ([22]; 80 g/ha): 90%
- Post-emergence action against AVEFA in % ([22]; 320 g/ha): 90%
- Post-emergence action against POLCO in % ([23]; dosage 80 g/ha): 80%
- Post-emergence action against POLCO in % ([23]; dosage 320 g/ha): 90%
- Post-emergence action against VIOTR in % ([24]; 80 g/ha): 90%
- Post-emergence action against VIOTR in % ([24]; 320 g/ha): 90%
- Pre-emergence action against VERPE in % ([16]; dosage 80 g/ha): 90%
- Pre-emergence action against VERPE in % ([16]; dosage 320 g/ha): 100%
- Pre-emergence action against SETVI in % ([17]; dosage 80 g/ha): 100%
- Pre-emergence action against SETVI in % ([17]; dosage 320 g/ha): 100%
- Pre-emergence action against LOLRI in % ([18]; dosage 80 g/ha): 100%
- Pre-emergence action against LOLRI in % ([18]; dosage 320 g/ha): 100%
- Post-emergence action against ECHCG in % ([19]; dosage 80 g/ha): 80%
- Post-emergence action against ECHCG in % ([19]; dosage 320 g/ha): 90%
- Pre-emergence action against ALOMY ([20]; 80 g/ha): 100%
- Pre-emergence action against ALOMY ([20]; 320 g/ha): 100%

Reference: patent US20240041042A1, “1-(PYRIDYL)-5-AZINYLPYRAZOLE DERIVATIVES, AND THEIR USE FOR CONTROL OF UNDESIRED PLANT GROWTH” (Bayer Aktiengesellschaft, priority 2020, published 2024)
